The source of these data is US8044057B2, “Methods for suppressing an immune response or treating a proliferative disorder” (The United States of America as represented by the …, priority 2003, dated 2011).

pIC50: −log10 of the molar value.

One test concerns A549 cells. The experiment in a line: A549 cell count after 24 hours with inhibitors. It is filed as cell-based, human. The note with it: 100 μM LY303511, rapamycin 200 ng/ml, 200 nM wortmannin, 100 μM LY294002. How it is done: FIG. 2A is a bar graph showing LY303511 blocks cell proliferation, DNA synthesis, and cell cycle progression in A549 cells. A. A549 cells (80,000 cells per 35-mm dish) were grown for 1 day in medium with FBS before the addition of 0.1% DMSO, 100 μM LY303511, rapamycin, 200 ng/ml, 200 nM wortmannin, or 100 μM LY294002 for 24 hours. Cells were then incubated with trypsin, collected, and counted. Data are the means of cells/well×10^−4 ±SEM from duplicate assays in three experiments. *p<0.05 by Student's t-test. FIG. 2B is a line graph from results obtained when A549 cells (4,000 per well) in 96-well plates were grown in medium with FBS for 24 h before the addition of […] plus 0-200 μM LY303511 without or with rapamycin, 200 ng/ml, or with rapamycin alone (0-200 ng/ml). BrDU incorporation (absorbance at 490/465) was measured by in situ ELISA as per the manufacturer's instructions (BrDU detection kit, Roche). For each experiment, BrDU in cells incubated with inhibitors was expressed as a percentage of that in cells treated with 0.2% DMSO control (% control). Mean absorbance measures for controls=100% in each experiment were 0.9±0.3, 0.8±0.3, and 0.8±0.3. […]
Additionally, A549 cells (80,000 cells per well), were grown for 24 hours before addition of inhibitors (FIG. 2A). After 24 hours, trypan blue-stained cells were counted using a hemocytometer. […]

Another test has as its system AKT. The experiment in a line: Western blot of phospho-Akt S473 in A549 cells. It is filed as cell-based, human. How it is done: (§1) A549 cells were treated without or with 100 mcM LY303511, 200 ng/ml rapamycin, or 50 nM wortmannin in serum free media for 1 hour before addition of E. coli lipopolysaccharide (LPS), […] and interferon (IFN)-γ, 100 U/ml (LPS/IFN-γ or “L/I”). Cells were homogenized and the indicated proteins (see Table 1) were detected by Western blot. Western blots are from the same experiment, and representative of three experiments.
Measurement of protein phosphorylation: A549 cells were incubated in serum-free medium without or with inhibitors for 1 hour, as indicated, before incubation for 30 minutes with a mixture of LPS, 100 μg/ml (Sigma; St. Louis, Mo.) and IFN-γ, 100 U/ml (Roche; Nutley, N.J.). PASM cells were incubated in serum-free medium without or with inhibitors for 24 h as indicated, before incubation for 30 min with 10% FBS. A549 or PASM cells were washed once with cold PBS and incubated for 15 minutes on ice ih lysis buffer (20 mM Tris pH 8.0, 1% Nonidet P-40, 1 mM EDTA, 5 mM benzamidine, aprotinin, 10 μg/ml, leupeptin, 10 μg/ml, trypsin soybean inhibitor, 1 mM PMSF, 50 mM sodium fluoride, 100 μM sodium orthovanadate, and 1: 100 Sigma phosphatase inhibitor set I containing cantharidin, microcystin LR and bromotetramizole). […] Integrated band densities were quantified using Scion Image beta 3b software.

In a further test the test system is P70 S6 kinase. The experiment in a line: Western blot of phospho-p70 S6 kinase T389 in A549 cells. It is filed as cell-based, human. How it is done:
as §1
In another experiment, A549 cells were grown to sub-confluence in serum-containing media, and incubated with a vehicle, 100 mcM LY303511, or rapamycin, 200 ng/ml for 0, 12, or 24 hours. Cells were lysed, and proteins separated by SDS-PAGE before transfer to nitrocellulose membranes. Membranes were incubated with antibodies against p27Kip1, p21 Cip1 orphospho-P70 S6 kinase T389.
Measurement of protein phosphorylation: A549 cells were incubated in serum-free medium without or with inhibitors for 1 hour, as indicated, before incubation for 30 minutes with a mixture of LPS, 100 μg/ml (Sigma; St. Louis, Mo.) and IFN-γ, 100 U/ml (Roche; Nutley, N.J.). PASM cells were incubated in serum-free medium without or with inhibitors for 24 h as indicated, before incubation for 30 min with 10% FBS. A549 or PASM cells were washed once with cold PBS and incubated for 15 minutes on ice ih lysis buffer (20 mM Tris pH 8.0, 1% Nonidet P-40, 1 mM EDTA, 5 mM benzamidine, aprotinin, 10 μg/ml, leupeptin, 10 μg/ml, trypsin soybean inhibitor, 1 mM PMSF, 50 mM sodium fluoride, 100 μM sodium orthovanadate, and 1: 100 Sigma phosphatase inhibitor set I containing cantharidin, microcystin LR and bromotetramizole). After freezing and thawing, lysates were centrifuged for 30 min at 16,000×g before protein measurement and storage at −80° C. Equal amounts of total protein were separated by SDS-PAGE, and transferred to a nitrocellulose membrane, before immunoblotting with primary antibodies as indicated. Membranes were treated with anti-rabbit IgG or anti-mouse IgG antibodies (Promega; Madison, Wis.) linked to horseradish peroxidase, developed using an enhanced chemiluminescence detection kit (SuperSignal West Pico, Pierce; Rockford, Ill.), and exposed to X-ray film, which was scanned using an Epson Expression 636 scanner. Integrated band densities were quantified using Scion Image beta 3b software.

The test system of test [1] is primary mouse peritoneal macrophages. The test can be described thus: LPS-induced cytokine production in peritoneal macrophages. The note with it: LPS 1 μg/ml; 1~100 μM; 24 hours. The test is classed as cell-based. How it is done: FIG. 7A-F are bar graphs showing that LY303511 inhibits lipopolysaccharide (LPS)—induced cytokine production or STAT1 activity in primary mouse peritoneal macrophages or A549 cells. Wild-type mice from Jackson (Jac) and Taconic (Tac) were used. Peritoneal macrophages were harvested three days after thioglycolate injection. Cells were incubated for three days in 2% FCS RPMI. The supernatant was collected after stimulation with LPS 1 μg/ml with or without LY 303511 (1˜100 μM) or DMSO for 24 hours. Cytokines (interleukin (IL)-12p70, tumor necrosis factor (TNF)-α, interferon (IFN)-γ, MCP-1, IL-10, IL-6) were measured in cell supematants. […] Thus, LY303511 clearly can reduce cytokine expression, and has an anti-inflammatory effect.
Peritoneal macrophages were harvested three days after thioglycolate injection. Cells were incubated for three days in 2% FCS RPM. The supernatant was collected after stimulation with LPS 1 μg/ml with or without LY 303511 (1˜100 μM) or DMSO for 24 hours. Cytokines (interleukin (IL)-12p70, tumor necrosis factor (TNF)-α, interferon (IFN)-γ, monocyte chemoattractant protein (MCP)-1, IL-10, IL-6) were measured in cell supernatants. […] Thus, LY303511 clearly can reduce cytokine expression, and has an anti-inflammatory effect.

`O=c1cc(N2CCNCC2)oc2c(-c3ccccc3)cccc12` [LY303511, 2-(4-piperazinyl)-8-phenyl-4H-1-benzopyran-4-one]: the “cell proliferation (cell number)” value with A549 cells is given as “significant inhibitory effect”. Besides, the “inhibition of phosphorylation of Akt” value with AKT (even at 100 mcM) is listed as “does not inhibit phosphorylation of Akt”. The “phosphorylation of AKT (S473)” value in the test on AKT (inhibitors 1 hour before LPS/IFN-γ, Western blot) is “increase phosphorylation of AKT”. Also, in the test with P70 S6 kinase (A549 cells in serum-containing media, 100 mcM LY303511 or rapamycin 200 ng/ml, 12 and 24 hours), the “phosphorylation of P70 S6 kinase at T389” value is on record as “blocked phosphorylation of P70 S6 kinase at T389”. Besides, in the test with P70 S6 kinase (A549 cells, LPS/IFNγ-stimulated), the “lowest concentration inhibiting LPS/IFNγ-stimulated mTOR activity and mTOR-dependent phosphorylation of S6K” value was 1 µM. In addition, in the test with P70 S6 kinase (A549 cells, 100 mcM LY303511, rapamycin 200 ng/ml or wortmannin for 1 hour before LPS/IFN-γ, Western blot), the “phosphorylation of P70 S6 kinase (pS6K T389)” value is “blocks phosphorylation of P70 S6 kinase”. The pIC50 in the test with P70 S6 kinase (Homo sapiens, A549 cells, stimulated, densitometric analysis of pS6K phosphoblots, read-out: IC50 for inhibition of S6K phosphorylation) was roughly 5.00. For the same compound, the “LPS-induced cytokines (IL-12p70, TNF-α, IFN-γ, MCP-1, IL-10, IL-6) in cell supernatants” value in test [1] was “dose-dependent reduction of all six cytokines”.
